Experimental data: patent US20150148377A1, “Quinoline Derivatives” (NOVARTIS AG, priority 2011, published 2015)
pIC50: −log10 of the molar value. Blank lines part the entries; values can stand above or below the compound they belong to.

Assays:
[1] = molecular target: T1, human phosphoinositide-3 kinase (PI3K) delta (Homo sapiens, UniProt O00329); experiment: PI3K-mediated Akt 1/2 (S473) phosphorylation in Rat-1 cells (Cell PI3Kδ); type: cell-based; conditions: Rat-1 cells overexpressing myristoylated human PI3K delta; p-Akt (Ser473)
T1 construct: myristoylation signal (myristoylated form); expressed in transfected cells
T1 sequence (O00329 whole entry): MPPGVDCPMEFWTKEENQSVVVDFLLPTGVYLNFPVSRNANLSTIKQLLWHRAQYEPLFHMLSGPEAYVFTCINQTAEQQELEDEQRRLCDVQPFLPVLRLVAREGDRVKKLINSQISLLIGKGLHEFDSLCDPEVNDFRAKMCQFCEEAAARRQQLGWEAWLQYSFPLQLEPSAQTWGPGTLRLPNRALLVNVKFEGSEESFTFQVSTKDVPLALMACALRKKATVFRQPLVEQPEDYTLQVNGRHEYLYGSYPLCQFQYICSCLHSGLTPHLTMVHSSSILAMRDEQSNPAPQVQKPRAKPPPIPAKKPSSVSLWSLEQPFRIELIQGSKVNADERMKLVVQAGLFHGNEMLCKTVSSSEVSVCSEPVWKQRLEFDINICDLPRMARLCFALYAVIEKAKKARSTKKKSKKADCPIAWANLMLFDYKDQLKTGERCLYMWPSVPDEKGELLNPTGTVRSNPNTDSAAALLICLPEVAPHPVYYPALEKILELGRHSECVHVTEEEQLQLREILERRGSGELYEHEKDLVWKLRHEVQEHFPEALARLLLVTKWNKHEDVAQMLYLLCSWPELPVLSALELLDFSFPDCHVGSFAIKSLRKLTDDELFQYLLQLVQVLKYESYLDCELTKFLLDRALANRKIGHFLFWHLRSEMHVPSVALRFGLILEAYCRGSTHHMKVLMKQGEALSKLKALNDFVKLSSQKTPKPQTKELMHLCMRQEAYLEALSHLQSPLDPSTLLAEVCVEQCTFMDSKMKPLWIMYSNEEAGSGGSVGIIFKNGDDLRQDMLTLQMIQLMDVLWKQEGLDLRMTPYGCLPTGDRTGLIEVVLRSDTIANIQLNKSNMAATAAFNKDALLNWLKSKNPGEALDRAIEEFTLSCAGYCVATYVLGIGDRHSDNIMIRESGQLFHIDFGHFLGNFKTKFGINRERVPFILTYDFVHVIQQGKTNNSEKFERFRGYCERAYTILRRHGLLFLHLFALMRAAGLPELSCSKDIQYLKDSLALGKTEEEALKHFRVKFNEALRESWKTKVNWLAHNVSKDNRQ
T1 sequence (Q63787 whole entry partner): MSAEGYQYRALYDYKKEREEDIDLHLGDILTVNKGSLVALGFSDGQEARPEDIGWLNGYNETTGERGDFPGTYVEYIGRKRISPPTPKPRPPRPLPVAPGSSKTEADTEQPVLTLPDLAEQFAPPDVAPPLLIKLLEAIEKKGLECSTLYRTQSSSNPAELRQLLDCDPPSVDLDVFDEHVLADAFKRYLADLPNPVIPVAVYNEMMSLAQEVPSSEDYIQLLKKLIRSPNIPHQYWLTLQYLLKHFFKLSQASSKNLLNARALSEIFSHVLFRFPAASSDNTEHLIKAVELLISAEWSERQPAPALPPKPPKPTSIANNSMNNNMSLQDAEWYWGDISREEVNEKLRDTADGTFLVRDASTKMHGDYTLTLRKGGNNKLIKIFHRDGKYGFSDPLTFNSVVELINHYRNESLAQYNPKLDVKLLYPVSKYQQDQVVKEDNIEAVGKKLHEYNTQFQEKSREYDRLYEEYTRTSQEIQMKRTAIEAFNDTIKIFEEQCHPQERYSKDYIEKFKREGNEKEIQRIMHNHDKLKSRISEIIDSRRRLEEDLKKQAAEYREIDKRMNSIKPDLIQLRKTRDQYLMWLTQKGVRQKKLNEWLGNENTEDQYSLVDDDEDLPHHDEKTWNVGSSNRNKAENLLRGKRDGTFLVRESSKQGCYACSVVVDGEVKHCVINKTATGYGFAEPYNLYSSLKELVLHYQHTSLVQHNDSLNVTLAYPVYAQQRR
Procedure: 2.1 Phosphoinositide-3 kinase (PI3K)-mediated Akt 1/2 (S473) phosphorylation in Rat-1 cells
Rat-1 cells stably overexpressing a myristoylated form of the catalytic subunit of human phosphoinositide-3 kinase (PI3K) alpha, beta or delta were plated in 384-well plates at a density of 7500 (PI3K alpha), 6200 (PI3K beta), or 4000 (PI3K delta) cells in 30 ul complete growth medium (Dulbecco's modified Eagle's medium (DMEM high glucose) supplemented with 10% (v/v) fetal bovine serum, 1% (v/v) MEM non essential amino acids, 10 mM HEPES, 2 mM L-glutamine, 10 μg/mL puromycin and 1% (v/v) Penicillin/Streptomycin) and were incubated at […]/5% CO2/95% humidity for 24 h. Compounds were diluted in 384-well compound plates to obtain 8-point serial dilutions for 40 test compounds in 90% DMSO, as well as 4 reference compounds plus 16 high controls and 16 low (inhibited) controls. Predilution plates were prepared by dispensing pipetting 250 nl of compound solutions into 384-well polypropylen plates using a Hummingwell nanoliter dispensor. Compounds were prediluted by the addition of 49.75 ul complete growth medium. 10 ul of prediluted compound solution were transferred to the cell plate using a 384-well pipettor, resulting in a final DMSO concentration of 0.11%. Cells were incubated for 1 h at […]/5% CO2/95% humidity. The supernatant was removed, the cells were lysed in 20 ul of lysis buffer for AlphaScreen® SureFire® detection.
For detection of p-AKT(Ser473), the SureFire® p-Akt 1/2 (Ser473) Assay Kit (PerkinElmer, U.S.A) was used. 5 ul of cell lysate was transferred to 384-well low volume Proxiplates for detection using a 384-well pipettor. Addition of AlphaScreen® SureFire® reagents was done according to the manufacturer's protocol. First, 5 ul of reaction buffer plus activation buffer mix containing AlphaScreen® acceptor beads was added, the plate was sealed, and incubated on a plate shaker for 2 hours at room temperature. Second, 2 ul of dilution buffer containing AlphaScreen® donor beads was added, and the plate was incubated on plate shaker as above for a further 2 hours. The plate was read on an AlphaScreen® compatible plate reader, using standard AlphaScreen® settings.

CD86 on rat B cells = experiment: Rat B cell activation in whole blood (CD86 upregulation after anti-IgM and IL-4); type: cell-based; conditions: anti-IgM + rIL-4 stimulation, CD86 on CD45RA+ B cells, read-out: RWB/IC50 CD86
Procedure: PI3Kδ has been recognized to modulate B cell function when cells are stimulated through the B cell receptor (BCR) (Okkenhaug et al. Science 297:1031 (2002). For assessing the inhibitory property of compounds on B cell activation, the upregulation of activation markers CD86 on rat B cells derived from whole blood is measured after stimulation with anti-IgM and recombinant IL-4. The CD86 molecule (also known as B7-2) is primarily expressed on antigen-presenting cells, including B cells. Resting B cells express CD86 at low levels, but upregulate it following stimulation of e.g. the BCR or IL-4 receptor. CD86 on a B cell interacts with CD28 on T cells. This interaction is required for optimal T cell activation and for the generation of an optimal IgG1 response (Carreno et al. Annu Rev Immunol. 20:29 (2002)).
Whole blood was collected from the abdominal aorta adult male Lewis rats (LEW/HanHsd) oby using a 10 ml syringe with hypodermic needle pre-coated with sodium heparin. Blood was transferred into 50 ml Falcon tubes and the anticoagulant concentration was adjusted to 100 U/ml.
For assessment of the in vitro effects of immunosuppressive drugs, heparinized blood was prediluted to 50% with medium. As medium served DMEM high glucose (Animed cat#1-26F01-I) supplemented with 100 U/ml penicillin, […], 2 mM L-glutamin, 50 mg/ml dextran 40 and 5% fetal calf serum (FCS, Fetaclone I, Gibco #10270-106). Then, 190 μl prediluted blood was spiked with 10 μl of pre-diluted test compound in 96 well U-bottomed microtiter plates (Nunc) resulting in a 3-fold serial dilution with a concentration range from 20 to 0.0003 μM. Control wells were pretreated with DMSO to obtain a final concentration of 0.5% DMSO. Cultures were set up in duplicates, mixed well by agitation on a plate shaker (Heidolph Titramax 101; 30 sec, speed 900), pipetting up and down and agitated on the plate shaker again. Cultures were incubated at 37° C., 5% CO2 for 1 hr. Then, 20 μl of polyclonal goat anti-rat IgM Ab (Serotec, cat#302001) and 10 μl of diluted recombinant rIL-4 (Immunotools #340085) were added to obtain final concentrations of 30 μg/ml and 5 ng/ml, respectively. Plates were mixed by agitation on a plate shaker as above and incubated for 24 hrs at 37° C., 5% CO2.
After incubation, 15 μl of a 25 mM EDTA solution was added per well and shaken for 15 min to detach adherent cells. For analysis of surface activation markers, samples were then stained with PE-Cy5-labeled anti-ratCD45RA (BD cat#557015) to allow gating on B cells in FACS analysis. In addition, samples were stained with PE-labeled anti-rat CD86 (BD cat#551396). All staining procedures were performed at RT for 30 min in the dark. After incubation, samples were transferred to 96-deep well V-bottomed microtiter plates (Corning #396096) containing 2 ml/well of BD Lysing Solution (BD #349202). After lysis of erythrocytes samples were washed with 2 ml of CeIIWASH (BD #349524). Data was acquired on an LSRII or FACScalibur flow cytometer (BD Biosciences) using Cellquest Plus or DIVA (version 6.1.1) software, respectively. Lymphocytes were gated in the FSC/SSC dot blot according to size and granularity and further analyzed for expression of CD45RA and activation markers. Data were calculated from dot blots or histograms as percentage of cells positively stained for activation markers within the CD45RA+ population.
The percentage inhibition of B cell activation after exposure to drug was calculated by the following formula: […]
ORIGIN 7 software (Origin Lab Corporation, Northampton, Mass.) was used for non-linear regression curve fitting. The drug concentration resulting in 50% inhibition (IC50) was obtained by fitting the Hill equation to inhibition data.

SMILES: COc1ncc(-c2ccnc3ccc(O[C@H]4CCN(C(=O)[C@@H]5CCN(C(C)=O)C5)C4)cc23)cc1C [Example A10, 1-((R)-3-{(S)-3-[4-(6-Methoxy-5-methyl-pyridin-3-yl)-quinolin-6-yloxy]-pyrrolidine-1-carbonyl}-pyrrolidin-1-yl)-ethanone]
pIC50 [1]: 7.80
pIC50 (CD86 on rat B cells): 7.23

SMILES: COc1ncc(-c2ccnc3ccc(O[C@H]4CCN(C(=O)[C@@H]5CCN(C(C)=O)C5)C4)cc23)cc1C(F)F [Example A24, 1-((R)-3-{(S)-3-[4-(5-Difluoromethyl-6-methoxy-pyridin-3-yl)-quinolin-6-yloxy]-pyrrolidine-1-carbonyl}-pyrrolidin-1-yl)-ethanone]
pIC50 [1]: 7.85
pIC50 (CD86 on rat B cells): 7.33

SMILES: CCC(=O)N1CC[C@H](Oc2ccc3nccc(-c4cnc(S(C)(=O)=O)c(C)c4)c3c2)C1 [Example A25, 1-{(S)-3-[4-(6-Methanesulfonyl-5-methyl-pyridin-3-yl)-quinolin-6-yloxy]-pyrrolidin-1-yl}-propan-1-one]
pIC50 [1]: 6.59
pIC50 (CD86 on rat B cells): 6.35

SMILES: COc1ncc(-c2ccnc3ccc(O[C@H]4CCN(C(=O)[C@@H]5CCN(C(C)=O)C5)C4)c(C)c23)cc1C(F)F [Example B1, 1-((R)-3-{(S)-3-[4-(5-Difluoromethyl-6-methoxy-pyridin-3-yl)-5-methylquinolin-6-yloxy]-pyrrolidine-1-carbonyl}-pyrrolidin-1-yl)-ethanone]
pIC50 [1]: 7.85
pIC50 (CD86 on rat B cells): 7.11

SMILES: Cc1cc(-c2ccnc3cc(F)c(O[C@H]4CCN(C(=O)C5CCOCC5)C4)cc23)cnc1S(C)(=O)=O [Example C2, {(S)-3-[7-Fluoro-4-(6-methanesulfonyl-5-methyl-pyridin-3-yl)-quinolin-6-yloxy]-pyrrolidin-1-yl}-(tetrahydro-pyran-4-yl)-methanone]
pIC50 [1]: 6.94
pIC50 (CD86 on rat B cells): 7.34

Results, then the compound that gave them:

pIC50 [1]: 7.49
pIC50 (CD86 on rat B cells): 7.14
SMILES: COc1ncc(-c2ccnc3ccc(O[C@H]4CCN(C(=O)C5CCS(=O)(=O)CC5)C4)cc23)cc1Cl [Example A1, {(S)-3-[4-(5-Chloro-6-methoxy-pyridin-3-yl)-quinolin-6-yloxy]-pyrrolidin-1-yl}-(1,1-dioxo-hexahydro-1lambda*6*-thiopyran-4-yl)-methanone]

pIC50 [1]: 7.11
pIC50 (CD86 on rat B cells): 7.37
SMILES: COc1ncc(-c2ccnc3ccc(O[C@H]4CCN(C(=O)C5CCS(=O)(=O)CC5)C4)cc23)cc1C(F)F [Example A6, {(S)-3-[4-(5-Difluoromethyl-6-methoxy-pyridin-3-yl)-quinolin-6-yloxy]-pyrrolidin-1-yl}-(1,1-dioxo-hexahydro-1lambda*6*-thiopyran-4-yl)-methanone]

pIC50 [1]: 7.28
pIC50 (CD86 on rat B cells): 7.00
SMILES: COc1ncc(-c2ccnc3ccc(O[C@H]4CCN(C(=O)C5CCS(=O)(=O)CC5)C4)cc23)cc1C [Example A15, (1,1-Dioxo-hexahydro-1lambda*6*-thiopyran-4-yl)-{(S)-3-[4-(6-methoxy-5-methyl-pyridin-3-yl)-quinolin-6-yloxy]-pyrrolidin-1-yl}-methanone]

pIC50 [1]: 6.98
pIC50 (CD86 on rat B cells): 6.97
SMILES: COc1ncc(-c2ccnc3ccc(O[C@H]4CCN(C(=O)C5CCS(=O)(=O)CC5)C4)c(C)c23)cc1C [Example B3, (1,1-Dioxo-hexahydro-1lambda*6*-thiopyran-4-yl)-{(S)-3-[4-(6-methoxy-5-methyl-pyridin-3-yl)-5-methyl-quinolin-6-yloxy]-pyrrolidin-1-yl}-methanone]

pIC50 [1]: 6.61
pIC50 (CD86 on rat B cells): 7.06
SMILES: COc1ncc(-c2ccnc3cc(F)c(O[C@H]4CCN(C(=O)C5CCS(=O)(=O)CC5)C4)cc23)cc1C [Example C1, (1,1-Dioxo-hexahydro-1lambda*6*-thiopyran-4-yl)-{(S)-3-[7-fluoro-4-(6-methoxy-5-methyl-pyridin-3-yl)-quinolin-6-yloxy]-pyrrolidin-1-yl}-methanone]
